Measurements: patent US6506779B1, “Acetylene derivatives as anti-inflammatory/analgesic agents” (Pfizer Inc., priority 1999, dated 2003)

Row | melting point | Compound
1 | 170 to 172 °C | CS(=O)(=O)c1ccc(-n2nc(C(F)(F)F)cc2-c2ccc(C#Cc3ccccc3)cc2)cc1 [Example 15, 1-[4-(Methylsulfonyl)Phenyl]-5-[4-(Phenylethynyl)Phenyl]-3-Trifluoromethyl-1H-Pyrazole]
2 | 96 to 98 °C | CCCCC#Cc1ccc(-c2cc(C(F)(F)F)nn2-c2ccc(S(C)(=O)=O)cc2)cc1 [Example 16, 5-[4-(1-Hexyn-1-yl)Phenyl]-1-[4-(Methylsulfonyl)Phenyl]-3-Trifluoromethyl-1H-Pyrazole]
3 | 87 to 90 °C | CS(=O)(=O)c1ccc(-n2nc(C(F)(F)F)cc2-c2ccc(C#CCCCO)cc2)cc1 [Example 17, 5-[4-(5-Hydroxy-1-Pentyn-1-yl)Phenyl]-1-[4-(Methylsulfonyl)Phenyl]-3-Trifluoromethyl-1H-Pyrazole]
